Common to all, as to assay type: functional
In test [1] the test system is Mus musculus. The test can be described thus: Antiinflammatory activity against histamine-induced mouse edema model assessed as inflammation index 20 mg/kg, po (untreated control = 32.6+/-3.1%).
In test [2] the test system is Mus musculus. Briefly: Antiinflammatory activity against histamine-induced mouse edema model assessed as edema size 20 mg/kg, po (untreated control = 100%).
The test system of test [3] is Mus musculus. Briefly: Antiinflammatory activity against histamine-induced mouse edema model assessed as antiinflammatory effect 20 mg/kg, po (untreated control = 0%).
The subject of test [4] is Mus musculus. Briefly: Antioxidant activity agains CCl4-induced hepatitis mouse model at 20 mg/kg, po (untreated control = 0%).
The subject of test [5] is Mus musculus. The test can be described thus: Antiinflammatory activity against histamine-induced mouse edema model assessed as antiinflammatory effect 50 mg/kg, po (untreated control = 0%).
In test [6] the test system is Mus musculus. Briefly: Antiinflammatory activity against histamine-induced mouse edema model assessed as inflammation index 50 mg/kg, po (untreated control = 32.6+/-3.1%).
Test [7] deals with Mus musculus. The test can be described thus: Antiinflammatory activity against histamine-induced mouse edema model assessed as edema size 50 mg/kg, po (untreated control = 100%).
Test [8] has as its system Mus musculus. The test can be described thus: Antioxidant activity agains CCl4-induced hepatitis mouse model assessed as TBARS level in serum at 20 mg/kg, po (untreated control = 100%).

The source of these data is ChEMBL document CHEMBL1641381, “Rapid access to new bioconjugates of betulonic acid via click chemistry” (2011).

For the compound `COc1ccc2c(c1)c(CC(=O)O)c(C)n2C(=O)c1ccc(Cl)cc1` [INDOMETHACIN], the Activity in test [1] is reported as 12.2%; in test [3], 63%. Also, the level, % of control at 20 mg/kg in test [2] is 37.4%.
For the compound `C=C(C)[C@@H]1CC[C@]2(C(=O)Nc3ccc(-c4cn(Cc5ccccc5)nn4)cc3)CC[C@]3(C)[C@H](CC[C@@H]4[C@@]5(C)CCC(=O)C(C)(C)[C@@H]5CC[C@]43C)[C@@H]12`, the Activity in test [4] stood at 42%; in test [1], 34.1%; in test [3], 0%; in test [5] it was 21%; in test [6], 25.6%; in test [8] it was 58%. For the same compound, the level, % of control at 20 mg/kg in test [2] was 105%. Moreover, in test [7], the level, % of control at 50 mg/kg stood at 78.5%.
Take `C=C(C)[C@@H]1CC[C@]2(C(=O)Nc3ccc(-c4cn(-c5ccc(C(C)=O)cc5)nn4)cc3)CC[C@]3(C)[C@H](CC[C@@H]4[C@@]5(C)CCC(=O)C(C)(C)[C@@H]5CC[C@]43C)[C@@H]12`: the Activity in test [4] was 60%; in test [1], 35.4%; in test [3], 0%; in test [5], 26%; in test [6], 24.2%; in test [8], 40%. Besides, in test [2], the level, % of control at 20 mg/kg was 109%. In test [7], the level, % of control at 50 mg/kg is 74.2%.
As for `C=C(C)[C@@H]1CC[C@]2(C(=O)Nc3ccc(-c4cn(CCCCCC)nn4)cc3)CC[C@]3(C)[C@H](CC[C@@H]4[C@@]5(C)CCC(=O)C(C)(C)[C@@H]5CC[C@]43C)[C@@H]12`, the Activity in test [4] was 34%; in test [1] it was 29%; in test [3] it was 11%; in test [5], 13%; in test [6], 28.4%; in test [8], 66%. For the same compound, in test [2], the level, % of control at 20 mg/kg was 89%. Further, the level, % of control at 50 mg/kg in test [7] is 87.1%.
`O=C1c2c(O)cc(O)cc2O[C@H](c2ccc(O)c(O)c2)[C@H]1O` [(+)-TAXIFOLIN]: the results for the Activity in test [4] and in test [8] were 43% and 57%, respectively.
For `C=C(C)[C@@H]1CC[C@]2(C(=O)Nc3ccc(-c4cn(-c5ccc(OC)cc5)nn4)cc3)CC[C@]3(C)[C@H](CC[C@@H]4[C@@]5(C)CCC(=O)C(C)(C)[C@@H]5CC[C@]43C)[C@@H]12`, the Activity was found to be 59% in test [4]; 25.6% in test [1]; 21% in test [3]; 22% in test [5]; 25.4% in test [6]; 41% in test [8]. In addition, in test [2], the level, % of control at 20 mg/kg turned out to be 78.5%. Also, the level, % of control at 50 mg/kg in test [7] stood at 77.9%.
